Data from patent US20230144436A1, “MUSCLE TARGETING COMPLEXES AND USES THEREOF FOR TREATING MYOTONIC DYSTROPHY” (Dyne Therapeutics, Inc., priority 2020, published 2023).

Tested on: DMPK
Assay: DMPK knockdown by transfected antisense oligonucleotides in DM1 C15 myotubes at 0.5 nM and 50 nM
Format: cell-based
Conditions: 72 hours; for Normalized DMPK Remaining: relative to vehicle control = 1.00
Summary of the method: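 DMPK remaining was measured by qPCR 72 h post-transfection, normalized to lipofectamine-only vehicle wells (=1.00). Oligonucleotides were delivered at 0.5 and 50 nM final to DM1 C15 myoblasts differentiated seven days into myotubes, in triplicate.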

[1] = 0.5 nM oligonucleotide, qPCR, relative to vehicle control
[2] = 50 nM oligonucleotide, qPCR, relative to vehicle control

Row | Substance | Percent DMPK Reduction [1] | Normalized DMPK Remaining (0.5 nM oligonucleotide, qPCR) | Percent DMPK Reduction [2] | Normalized DMPK Remaining (50 nM oligonucleotide, qPCR) | Percent DMPK Reduction (0.5 nM oligonucleotide) | Normalized DMPK Remaining (0.5 nM oligonucleotide) | Percent DMPK Reduction (50 nM oligonucleotide) | Normalized DMPK Remaining (50 nM oligonucleotide)
1 | 351 (UGAUGUCCCUGUGCACGUAG; chemistry not given here) [compound 351] | 20.58% | 0.79 | 59.00% | 0.41 | – | – | – | –
2 | 352 (AAAUACCGAGGAAUGUCGGG; chemistry not given here) [compound 352] | 11.25% | 0.89 | 50.91% | 0.49 | – | – | – | –
3 | 353 (GGCGAAUACACCCAGCGCCC; chemistry not given here) [compound 353] | 19.77% | 0.80 | 68.72% | 0.31 | – | – | – | –
4 | 354 (AGACAAUAAAUACCGAGGAA; chemistry not given here) [compound 354] | 29.37% | 0.71 | 48.20% | 0.52 | – | – | – | –
5 | 355 (CCCGUCUGCUUCAUCUUCAC; chemistry not given here) [compound 355] | 20.31% | 0.80 | 43.97% | 0.56 | – | – | – | –
6 | 356 (CUGCCUGCAGCAACUCCAUC; chemistry not given here) [compound 356] | 23.10% | 0.77 | 46.69% | 0.53 | – | – | – | –
7 | 357 (CCUCAGCCUCUGCCGCAGGG; chemistry not given here) [compound 357] | 10.87% | 0.89 | 55.22% | 0.45 | – | – | – | –
8 | 358 (GUGUCCGGAAGUCGCCUGCU; chemistry not given here) [compound 358] | 22.99% | 0.77 | 73.65% | 0.26 | – | – | – | –
9 | 359 (UGCACGUGUGGCUCAAGCAG; chemistry not given here) [compound 359] | 10.81% | 0.89 | 64.18% | 0.36 | – | – | – | –
10 | 360 (GACAAUAAAUACCGAGGAAU; chemistry not given here) [compound 360] | 28.97% | 0.71 | 47.51% | 0.52 | – | – | – | –
11 | 361 (GCCAUGACAAUCUCCGCCAG; chemistry not given here) [compound 361] | 30.96% | 0.69 | 81.00% | 0.19 | – | – | – | –
12 | 363 (CAUGACCAGGUACAGGUAGU; chemistry not given here) [compound 363] | 19.39% | 0.81 | 59.09% | 0.41 | – | – | – | –
13 | 364 (AGCGCCCACCAGUCACACUC; chemistry not given here) [compound 364] | 30.36% | 0.70 | 63.67% | 0.36 | – | – | – | –
14 | 365 (UCUCAGUGCAUCCAAAACGU; chemistry not given here) [compound 365] | 10.88% | 0.89 | 51.34% | 0.49 | – | – | – | –
15 | 366 (UUUGGGCAGAUGGAGGGCCU; chemistry not given here) [compound 366] | 35.14% | 0.65 | 70.00% | 0.30 | – | – | – | –
16 | 367 (GAUGUCCCUGUGCACGUAGC; chemistry not given here) [compound 367] | 18.99% | 0.81 | 62.46% | 0.38 | – | – | – | –
17 | 368 (CAGCAGUGUCAGCAGGUCCC; chemistry not given here) [compound 368] | 25.67% | 0.74 | 51.97% | 0.48 | – | – | – | –
18 | 369 (CAUGACAAUCUCCGCCAGGU; chemistry not given here) [compound 369] | 29.45% | 0.71 | 70.52% | 0.29 | – | – | – | –
19 | 370 (ACUUGUUCAUGAUCUUCAUG; chemistry not given here) [compound 370] | 25.47% | 0.75 | 52.89% | 0.47 | – | – | – | –
20 | 371 (GUGGAAUCCGCGUAGAAGGG; chemistry not given here) [compound 371] | 30.55% | 0.69 | 49.34% | 0.51 | – | – | – | –

Row | Substance | Percent DMPK Reduction [1] | Normalized DMPK Remaining (0.5 nM oligonucleotide, qPCR) | Percent DMPK Reduction [2] | Normalized DMPK Remaining (50 nM oligonucleotide, qPCR) | Percent DMPK Reduction (0.5 nM oligonucleotide) | Normalized DMPK Remaining (0.5 nM oligonucleotide) | Percent DMPK Reduction (50 nM oligonucleotide) | Normalized DMPK Remaining (50 nM oligonucleotide)
21 | 372 (UGGCCAUGACAAUCUCCGCC; chemistry not given here) [compound 372] | 30.46% | 0.70 | 72.55% | 0.27 | – | – | – | –
22 | 373 (GGGACAGACAAUAAAUACCG; chemistry not given here) [compound 373] | 27.19% | 0.73 | 50.50% | 0.49 | – | – | – | –
23 | 374 (CCGCUCCCCAAACUUGCUCA; chemistry not given here) [compound 374] | 0.28% | 1.00 | 56.82% | 0.43 | – | – | – | –
24 | 375 (CGGCUCAGGCUCUGCCGGGU; chemistry not given here) [compound 375] | 17.97% | 0.82 | 69.03% | 0.31 | – | – | – | –
25 | 376 (GGCUCCUGGGCGGCGCCAGA; chemistry not given here) [compound 376] | 0.05% | 1.00 | 96.23% | 0.04 | – | – | – | –
26 | 377 (UUUCCCGAGUAAGCAGGCAG; chemistry not given here) [compound 377] | – | – | – | – | 20.69% | 0.79 | 44.89% | 0.55
27 | 378 (GGAUGUUGUCGGGUUUGAUG; chemistry not given here) [compound 378] | – | – | – | – | 4.26% | 0.96 | 40.81% | 0.59
28 | 379 (CAGGUAGUUCUCAUCCUGGA; chemistry not given here) [compound 379] | – | – | – | – | 25.92% | 0.74 | 76.71% | 0.23
29 | 380 (UGCCCAUAGAACAUUUCAUA; chemistry not given here) [compound 380] | – | – | – | – | 7.67% | 0.92 | 34.56% | 0.65
30 | 381 (UAGUUCUCAUCCUGGAAGGC; chemistry not given here) [compound 381] | – | – | – | – | 16.83% | 0.83 | 43.88% | 0.56
31 | 382 (AUGUCCCUGUGCACGUAGCC; chemistry not given here) [compound 382] | – | – | – | – | 16.78% | 0.83 | 49.29% | 0.51
32 | 383 (CGGGCCCGGAUCACAGGACU; chemistry not given here) [compound 383] | – | – | – | – | 17.45% | 0.83 | 67.11% | 0.33
33 | 384 (UGGACGAUCUUGCCAUAGGU; chemistry not given here) [compound 384] | – | – | – | – | 19.20% | 0.81 | 42.52% | 0.57
34 | 385 (GUUGGCCGGCGUGGGCCACC; chemistry not given here) [compound 385] | – | – | – | – | -1.82% | 1.02 | 43.57% | 0.56
35 | 386 (CUCAGUGCAUCCAAAACGUG; chemistry not given here) [compound 386] | – | – | – | – | 7.65% | 0.92 | 54.26% | 0.46
36 | 387 (UCGAAGUUGCAUGUGUCGGU; chemistry not given here) [compound 387] | – | – | – | – | 22.96% | 0.77 | 58.15% | 0.42
37 | 388 (UGGAACACGGACGGCCCGGC; chemistry not given here) [compound 388] | – | – | – | – | -1.90% | 1.02 | 60.96% | 0.39
38 | 389 (CCGAGAGCAGCGCAAGUGAG; chemistry not given here) [compound 389] | – | – | – | – | 16.13% | 0.84 | 40.93% | 0.59
39 | 390 (UCCUGCAACUGCCGGACGUG; chemistry not given here) [compound 390] | – | – | – | – | 16.06% | 0.84 | 44.61% | 0.55
